Reference: ChEMBL document CHEMBL5226341, “Discovery of a Potent FLT3 Inhibitor (LT-850-166) with the Capacity of Overcoming a Variety of FLT3 Mutations” (J Med Chem, 2021)

What was measured:
[1] = test system: THP-1; assay: Antiproliferative activity against human THP-1 cells assessed as reduction in cell viability measured after 72 hrs by CellTiterGlo luminescent assay; assay type: functional, cell-based; details: THP-1, 72 h
[2] = Ratio of IC50 for antiproliferative activity against mouse BaF3 cells harboring FLT3-ITD-F691L mutant to IC50 for antiproliferative activity against mouse BaF3 cells harboring FLT3-ITD mutant; assay type: functional
[3] = test system: MV4-11; assay: Antitumor activity against human MV4-11 cells xenografted in BALB/c mouse assessed as inhibition rate of tumor weight at 15 mg/kg, iv QD for 21 days by vernier caliper analysis; assay type: functional; details: MV4-11, 504 h, time 21 day
[4] = target: Receptor-type tyrosine-protein kinase FLT3 (Homo sapiens) (UniProt P36888); assay: Inhibition of FLT3 in human MV4-11 cells assessed as inhibition of ERK phosphorylation at Thr202/Tyr204 residue at 10 nM incubated for 4 hrs by western blot analysis; assay type: cell-based
Receptor-type tyrosine-protein kinase FLT3 (Homo sapiens), sequence (P36888 whole entry): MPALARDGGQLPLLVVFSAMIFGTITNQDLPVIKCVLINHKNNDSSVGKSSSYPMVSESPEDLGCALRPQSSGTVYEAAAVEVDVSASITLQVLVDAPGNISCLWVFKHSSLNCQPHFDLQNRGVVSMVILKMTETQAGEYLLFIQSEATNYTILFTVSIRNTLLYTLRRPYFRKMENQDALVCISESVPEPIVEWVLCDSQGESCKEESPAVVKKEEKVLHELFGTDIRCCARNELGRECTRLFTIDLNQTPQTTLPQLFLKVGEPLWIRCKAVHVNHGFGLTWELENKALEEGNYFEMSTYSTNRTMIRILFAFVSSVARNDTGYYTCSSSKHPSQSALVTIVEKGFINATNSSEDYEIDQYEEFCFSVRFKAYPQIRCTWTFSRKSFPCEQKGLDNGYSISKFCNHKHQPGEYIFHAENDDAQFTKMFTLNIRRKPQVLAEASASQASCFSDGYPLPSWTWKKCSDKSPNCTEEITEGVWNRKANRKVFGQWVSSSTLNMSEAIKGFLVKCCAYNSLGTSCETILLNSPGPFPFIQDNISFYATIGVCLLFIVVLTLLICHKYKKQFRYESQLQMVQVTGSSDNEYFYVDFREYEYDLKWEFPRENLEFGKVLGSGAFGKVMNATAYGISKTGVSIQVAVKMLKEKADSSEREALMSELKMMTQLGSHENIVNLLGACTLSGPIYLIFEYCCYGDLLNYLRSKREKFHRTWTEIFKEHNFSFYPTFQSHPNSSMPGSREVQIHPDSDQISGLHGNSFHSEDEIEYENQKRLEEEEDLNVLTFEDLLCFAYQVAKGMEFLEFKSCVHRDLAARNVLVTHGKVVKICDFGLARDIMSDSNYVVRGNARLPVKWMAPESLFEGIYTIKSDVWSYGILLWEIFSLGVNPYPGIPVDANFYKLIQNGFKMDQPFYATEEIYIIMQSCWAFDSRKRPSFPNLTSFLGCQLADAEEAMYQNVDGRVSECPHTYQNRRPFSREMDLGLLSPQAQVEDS

[5] = test system: MDA-MB-231; assay: Antiproliferative activity against human MDA-MB-231 cells assessed as reduction in cell viability measured after 72 hrs by CellTiterGlo luminescent assay; assay type: functional, cell-based; details: MDA-MB-231, 72 h
[6] = test system: MV4-11; assay: Antiproliferative activity against human MV4-11 cells assessed as inhibition of cell growth incubated for 72 hrs by CellTiterGlo luminescent assay; assay type: functional, cell-based; details: MV4-11, 72 h
[7] = test system: MV4-11; assay: Induction of apoptosis in human MV4-11 cells assessed as viable cells at 10 nM incubated for 24 hrs by AnnexinV-FITC/PI staining based flow cytometry (reference value: 92.3%); assay type: functional; details: read-out: Activity
[8] = Toxicity in BALB/c mouse xenografted with human MV4-11 cells assessed as morphological changes in kidney at 15 mg/kg, iv for 21 days by H and E staining based analysis; assay type: organism-based; details: in vivo, 504 h, time 21 day
[9] = test system: NB-4; assay: Antiproliferative activity against human NB-4 cells assessed as reduction in cell viability measured after 72 hrs by CellTiterGlo luminescent assay; assay type: functional, cell-based; details: NB-4, 72 h
[10] = Toxicity in ICR mouse assessed as effect on animal's survival rate at 100 mg/kg, iv administered as single dose and measured for 14 days; assay type: organism-based; details: in vivo, 336 h, time 14 day
[11] = Clearance in Sprague-Dawley rat at 1 mg/kg, iv measured for 24 hrs by LC-MS/MS analysis; assay type: ADME, organism-based; details: in vivo
[12] = test system: MV4-11; assay: Induction of apoptosis in human MV4-11 cells assessed as late apoptotic cells at 50 nM incubated for 24 hrs by AnnexinV-FITC/PI staining based flow cytometry (reference value: 4.2%); assay type: functional
[13] = MRT (0 to t) in Sprague-Dawley rat at 10 mg/kg, po measured for 24 hrs by LC-MS/MS analysis; assay type: ADME, organism-based; details: in vivo
[14] = AUC (0 to t) in Sprague-Dawley rat at 1 mg/kg, iv measured for 24 hrs by LC-MS/MS analysis; assay type: ADME, organism-based; parameters: dose 1 mg/kg, time 24 hrs, route iv; details: in vivo
[15] = test system: A549; assay: Antiproliferative activity against human A549 cells assessed as reduction in cell viability measured after 72 hrs by CellTiterGlo luminescent assay; assay type: functional, cell-based; details: A549, 72 h
[16] = Toxicity in BALB/c mouse xenografted with human MV4-11 cells assessed as morphological changes in heart at 15 mg/kg, iv for 21 days by H and E staining based analysis; assay type: organism-based; details: in vivo, 504 h, time 21 day

CCN1CCN(c2ccc(C(=O)Nc3cc(-c4ccc5ncn(Cc6c(Cl)cccc6Cl)c5c4)[nH]n3)cc2)CC1
IC50 [1]: > 5 µM
Ratio IC50 [2]: 1.09
inhibition in vivo at 15 mg/kg [3]: 82.7%
inhibition [4]: 100%
IC50 [5]: 3.85 µM
IC50 [6]: 0.00293 µM
viability at 0.01 µM [7]: 67.9%
Activity [8]: Non-Toxic
IC50 [9]: > 5 µM
Activity [10]: Non-Toxic
clearance [11]: 40.2 mL/min/kg
Activity [12]: 26.3%
MRT last at 24 h [13]: 3.63 h
AUC(0-t) at 24 h [14]: 391 ng·h/mL
IC50 [15]: 3.66 µM
Activity [16]: Non-Toxic
